In patent publication US4490393A, “Thiazolylurea derivatives, a process for preparing same and a pharmaceutical composition containing same” (Mitsui Toatsu Kagaki Kabushiki Kaisha, priority 1981, dated 1984):
Where a name gives a salt, the structure may show the parent alone.

Tested on: delayed hypersensitivity induced by picryl chloride
Experiment: Reinforcement Test of Delayed Hypersensitivity (Test Example 1)
Assay type: in vivo, ICR male mice
Conditions: ICR mice, oral 50 mg per Kg simultaneously with sensitization; 24 hours after challenging; average of both pinnae of eight mice; * P<0.05, ** P<0.01 vs control
Description: The delayed hypersensitivity induced on a mouse when picryl chloride(2-chloro-1,3,5-trinitrobenzene) is coated on the skin of the mouse is known as a typical cellular immunity.
This test system was used for the reinforcement tests of the delayed hypersensitivity.
Groups of eight ICR male mice, each having a body weight of about 30 g or so, were used for the test.
Sensitization was effected by coating a 3% solution of picryl chloride in a 4/1 mixture of olive oil and acetone on the shaved abdomen of each of the mice.
Simultaneously with the sensitization, a solution or suspension of a compound of the present invention dissolved or suspended in a 0.2% solution of carboxymethylcellulose in a physiological saline was orally administered to the mouse at a dose of 50 mg per Kg of its body weight. To each mouse of a control group, was similarly administered a 0.2% carboxymethylcellulose solution in a physiological saline.
The delayed hypersensitivity was induced 7 days after the sensitization by pinching each of the pinnae of each mouse with a pair of forceps whose tip portions were wrapped with a felt impregnated with a 1% solution of picryl chloride in olive oil and coating the pinnae with the solution. The thickness of each pinna was measured before the challenging and 24 hours after the challenging and the ratio of increase of the thickness (average value of both of the pinnae of the eight mice) is shown in Table 1.
For comparison, a similar test was carried out using Levamisole hydrochloride. The results thereof are also shown.
F.t tests were carried out on the thus-obtained test results.

**Q.** For `O=C(Nc1ccccn1)Nc1nc(-c2ccccc2)cs1` [drawing 13], which “Ratio of Increase of Pinna Thickness” value is on record?
**A.** 25.4%

**Q.** For `Cc1cc(NC(=O)Nc2nc(-c3ccccc3)cs2)no1` [drawing 12], which “Ratio of Increase of Pinna Thickness” value is on record?
**A.** 37.8%

**Q.** Which “Ratio of Increase of Pinna Thickness” value does the source give for `c1ccc([C@H]2CN3CCSC3=N2)cc1` [Levamisole.HCl, Levamisole hydrochloride, reference compound] here?
**A.** 31.2%

**Q.** Which “Ratio of Increase of Pinna Thickness” value does the source give for `CSc1sc(NC(=O)Nc2nc(-c3ccccc3)c(SC)s2)nc1-c1ccccc1` [drawing 11] here?
**A.** 29.0%

**Q.** `O=C(Nc1nc(-c2ccccc2)cs1)Nc1nc(-c2ccccc2)cs1` [drawing 8] was tested. Which “Ratio of Increase of Pinna Thickness” value did it give?
**A.** 37.5%

**Q.** How did the “Ratio of Increase of Pinna Thickness” value turn out when `Cc1ccc(-c2csc(NC(=O)Nc3nc(-c4ccc(C)cc4)cs3)n2)cc1` [drawing 9] was run?
**A.** 36.1%

**Q.** For `COc1ccc(-c2csc(NC(=O)Nc3nc(-c4ccc(OC)cc4)cs3)n2)cc1` [drawing 10], which “Ratio of Increase of Pinna Thickness” value is on record?
**A.** 31.7%

Tested on: adjuvant arthritis caused by the injection of a Mycobacterium tuberculosis adjuvant
Experiment: Adjuvant Arthritis Test (Test Example 2)
Assay type: in vivo, SD male rats
Conditions: SD rats, subcutaneous 5 mg per Kg, 9 times; average value from 16th to 20th days; left hind leg; * P<0.05, ** P<0.01 vs control
Description: The adjuvant arthritis in rats caused by the injection of a Mycobacterium tuberculosis adjuvant is often utilized for a model test of chronic rheumatoid arthritis in human.
The mechanism of manifestation of this disease has not completely been elucidated, but it is known that cellular immunity plays an important role. The immuno-modulating activity of the compounds of the present invention was investigated in accordance with this known adjuvant arthritis test.
8-Week-old SD male rats were used for the test. In 0.1 ml of fluid paraffin, 0.4 mg of dry dead cells of Mycobacterium tuberculosis were suspended, and the suspension was injected under the heel skin of the right hind leg of each rat. Each of the compounds of the present invention was subcutaneously administered 9 times in total before and after the injection of the adjuvant. Each of the compounds of the present invention was dissolved or suspended in a 0.2% solution of carboxymethylcellulose in physiological saline and administered to each rat at a dose of 5 mg per Kg of the body weight. The swollen volume of the left hind leg was measured during the period of from the day of injection to the day of completion of the test, and the swelling ratio was calculated. For comparison, a similar test was conducted using Levamisole hydrochloride. F.t tests were carried out on the test results obtained.

**Q.** For `Cc1ccc(-c2csc(NC(=O)Nc3nc(-c4ccc(C)cc4)cs3)n2)cc1` [drawing 15], which “Swell suppression ratio to control group” value is on record?
**A.** 29.3%

**Q.** How did the “Swell suppression ratio to control group” value turn out when `c1ccc([C@H]2CN3CCSC3=N2)cc1` [Levamisole.HCl, Levamisole hydrochloride, reference compound] was run?
**A.** 19.8%

**Q.** `Cc1cc(NC(=O)Nc2nc(-c3ccccc3)cs2)no1` [drawing 18] was tested. Which “Swell suppression ratio to control group” value did it give?
**A.** 26.6%

**Q.** How did the “Swell suppression ratio to control group” value turn out when `O=C(Nc1ccccn1)Nc1nc(-c2ccccc2)cs1` [drawing 19] was run?
**A.** 34.6%

**Q.** Which “Swell suppression ratio to control group” value does the source give for `COc1ccc(-c2csc(NC(=O)Nc3nc(-c4ccc(OC)cc4)cs3)n2)cc1` [drawing 16] here?
**A.** 37.5%

**Q.** Which “Swell suppression ratio to control group” value does the source give for `CSc1sc(NC(=O)Nc2nc(-c3ccccc3)c(SC)s2)nc1-c1ccccc1` [drawing 17] here?
**A.** 28.8%

**Q.** For `O=C(Nc1nc(-c2ccccc2)cs1)Nc1nc(-c2ccccc2)cs1` [drawing 14], which “Swell suppression ratio to control group” value is on record?
**A.** 35.7%

Tested on: ddY male mice
Experiment: Acute Toxicity Test through Oral Administration (Test Example 3)
Assay type: in vivo
Conditions: observed for 7 days
Description: To each of a group of five ddY male mice, was orally administered a medicine dissolved or suspended in physiological saline.

**Q.** Which “estimated LD50” value does the source give for `c1ccc([C@H]2CN3CCSC3=N2)cc1` [Levamisole.HCl, Levamisole hydrochloride, reference compound] here?
**A.** 200 to 300 mg/kg
